Experimental data taken from patent publication US11773094B2, “Farnesoid X receptor agonists and uses thereof” (Metacrine, Inc., priority 2018, dated 2023).

The molecules below were run against T1, hFXR (Homo sapiens, UniProt Q96RI1) (assay: In Vitro FXR Assay (TK): TK-ECRE-luc reporter in transfected CV-1 cells). Details: CV-1 cells transfected with hFXR, hRXR, pCMX-YFP, 18 hrs incubation, luminescence.
T1 construct: expressed in transfected cells; host or cells: CV-1 cells
T1 sequence (Q96RI1 1-486): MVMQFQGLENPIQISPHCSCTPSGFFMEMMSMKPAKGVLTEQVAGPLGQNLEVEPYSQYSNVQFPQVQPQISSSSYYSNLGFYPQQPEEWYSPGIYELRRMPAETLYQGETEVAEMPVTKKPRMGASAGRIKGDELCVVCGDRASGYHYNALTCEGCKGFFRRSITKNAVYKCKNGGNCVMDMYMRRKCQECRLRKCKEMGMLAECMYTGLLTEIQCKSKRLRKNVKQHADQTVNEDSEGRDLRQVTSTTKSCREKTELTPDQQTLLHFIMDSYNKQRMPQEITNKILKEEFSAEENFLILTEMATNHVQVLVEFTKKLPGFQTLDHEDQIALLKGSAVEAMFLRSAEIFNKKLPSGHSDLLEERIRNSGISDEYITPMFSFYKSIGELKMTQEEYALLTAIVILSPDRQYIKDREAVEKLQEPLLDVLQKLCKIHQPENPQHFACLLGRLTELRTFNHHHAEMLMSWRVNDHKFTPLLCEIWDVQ
T1 sequence (P19793 1-462 partner): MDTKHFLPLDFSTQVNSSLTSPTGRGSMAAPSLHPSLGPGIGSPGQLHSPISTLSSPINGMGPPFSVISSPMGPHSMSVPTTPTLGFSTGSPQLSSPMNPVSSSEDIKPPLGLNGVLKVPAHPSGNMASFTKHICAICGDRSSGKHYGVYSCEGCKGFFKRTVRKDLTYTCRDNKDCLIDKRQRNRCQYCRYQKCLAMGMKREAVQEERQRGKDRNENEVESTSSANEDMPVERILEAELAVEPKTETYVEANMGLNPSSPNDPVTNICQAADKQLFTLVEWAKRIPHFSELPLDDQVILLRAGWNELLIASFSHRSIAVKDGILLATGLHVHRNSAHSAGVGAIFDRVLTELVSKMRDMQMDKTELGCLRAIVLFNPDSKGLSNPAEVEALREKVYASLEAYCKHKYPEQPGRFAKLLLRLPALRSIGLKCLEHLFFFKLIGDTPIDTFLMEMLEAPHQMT
Format: cell-based
Experimental: Example B-1: In Vitro FXR Assay (TK)
CV-1 cells were seeded at a density of 2,000,000 cells in a T175 flask with DMEM+10% charcoal double-stripped FBS and incubated at 37° C. in 5% CO2 for 18 h (O/N).
After 18 h of incubation, the medium in the T175 flask was changed with fresh DMEM+10% charcoal super-stripped serum. In a polypropylene tube, 2500 μL OptiMEM (Life Technologies, Cat #31985-062) was combined with expression plasmids for hFXR, hRXR, TK-ECRE-luc and pCMX-YFP. The tube was then briefly vortexed and incubated at room temperature for 5 minutes. Transfection reagent (X-tremeGENE HP from Roche, Cat #06 366 236 001) was added to the OptiMEM/plasmid mixture vortexed and incubated at room temperature for 20 minutes. Following incubation, the transfection reagent/DNA mixture complex was added to cells in the T175 flask and the cells were incubated at 37° C. in 5% CO2 for 18 h (O/N).
Compounds were serially diluted in DMSO and added to transfected CV-1 cells. The cells were then incubated for 18 hrs. The next day cells were lysed and examined for luminescence.
In the case of `COc1ccc(C23CCC(CN(c4cc(-c5coc(C(C)(C)C)n5)ccn4)C(=O)[C@H]4CC[C@H](OC(=O)NCCCO)CC4)(CC2)CC3)cc1C` [Compound 2, 4-((4-(2-(tert-Butyl)oxazol-4-yl)pyridin-2-yl)((4-(4-methoxy-3-methylphenyl)bicyclo[2.2.2]octan-1-yl)methyl)carbamoyl) (trans-cyclohexyl) (3-hydroxypropyl)carbamate], the EC50 is reported as at most 10 nM.
`COc1ccc(C23CCC(CN(c4cc(-c5cnn(C(C)(C)C)c5)ccn4)C(=O)[C@H]4CC[C@H](OC(=O)N5CC(S(C)(=O)=O)C5)CC4)(CC2)CC3)cc1C` [Compound 2.23, 4-((4-(1-(tert-Butyl)-1H-pyrazol-4-yl)pyridin-2-yl)((4-(4-methoxy-3-methylphenyl)bicyclo[2.2.2]octan-1-yl)methyl)carbamoyl) (trans-cyclohexyl) 3-(methylsulfonyl)azetidine-1-carboxylate] showed an EC50 of at most 10 nM.
`COc1ccc(C23CCC(CN(c4cc(-c5cnc(C(C)(C)C)s5)ccn4)C(=O)[C@H]4CC[C@H](OC(=O)NC5CCOCC5)CC4)(CC2)CC3)cc1C` [Compound 3.09, 4-((4-(2-(tert-Butyl)thiazol-5-yl)pyridin-2-yl)((4-(4-methoxy-3-methylphenyl)bicyclo[2.2.2]octan-1-yl)methyl)carbamoyl) cyclohexyl (tetrahydro-2H-pyran-4-yl)trans-carbamate] showed an EC50 of 10 to 1000 nM.
`COc1ccc(C23CCC(CN(c4cc(-c5cnc(C(C)(C)C)s5)ccn4)C(=O)[C@H]4CC[C@H](OC(=O)N5CC[C@H]5CO)CC4)(CC2)CC3)cc1C` [Compound 2.10, (S)-4-((4-(2-(tert-Butyl)thiazol-5-yl)pyridin-2-yl)((4-(4-methoxy-3-methylphenyl)bicyclo[2.2.2]octan-1-yl)methyl)carbamoyl)cyclohexyl 2-(hydroxymethyl)azetidine- trans-1-carboxylate] was tested, and the EC50 was at most 10 nM.
`COc1ccc(C23CCC(CN(c4cc(-c5cnc(C(C)(C)C)s5)ccn4)C(=O)[C@H]4CC[C@H](OC(=O)NC5COC5)CC4)(CC2)CC3)cc1C` [Compound 2.04, 4-((4-(2-(tert-Butyl)thiazol-5-yl)pyridin-2-yl)((4-(4-methoxy-3-methylphenyl)bicyclo[2.2.2]octan-1-yl)methyl)carbamoyl) (trans-cyclohexyl) oxetan-3-ylcarbamate] gave an EC50 of at most 10 nM.
Work on `COc1ccc(C23CCC(CN(c4cc(-c5coc(C(C)(C)C)n5)ccn4)C(=O)[C@H]4CC[C@H](OC(=O)N5CC(C)(O)C5)CC4)(CC2)CC3)cc1C` [Compound 2.12, 4-((4-(2-(tert-Butyl)oxazol-4-yl)pyridin-2-yl)((4-(4-methoxy-3-methylphenyl)bicyclo[2.2.2]octan-1-yl)methyl)carbamoyl) (trans-cyclohexyl) 3-hydroxy-3-methylazetidine-1-carboxylate] yielded an EC50 of at most 10 nM.
With `COc1ccc([C@H]2CC[C@H](CN(c3cc(-c4cnn(C(C)(C)C)c4)ccn3)C(=O)[C@H]3CC[C@H](OC(=O)N4CCC(O)CC4)CC3)CC2)cc1C` [Compound 1.10, trans-4-((4-(1-(tert-Butyl)-1H-pyrazol-4-yl)pyridin-2-yl)((trans-4-(4-methoxy-3-methylphenyl)cyclohexyl)methyl)carbamoyl) cyclohexyl 4-hydroxypiperidine-1-carboxylate] the EC50 was 10 to 1000 nM.
For `COc1ccc(C23CCC(CN(c4cc(-n5ccc(C(C)(C)C)n5)ccn4)C(=O)[C@H]4CC[C@H](OC(=O)N5CC(O)C5)CC4)(CC2)CC3)cc1C` [Compound 2.35, 4-((4-(3-(tert-Butyl)-1H-pyrazol-1-yl)pyridin-2-yl)((4-(4-methoxy-3-methylphenyl)bicyclo[2.2.2]octan-1-yl)methyl)carbamoyl) cyclohexyl trans-3-hydroxyazetidine-1-carboxylate], the EC50 was 10 to 1000 nM.
Work on `CCC(CC)(CC)n1cc(-c2ccnc(N(CC34CCC(c5ccc(OC)c(C)c5)(CC3)CC4)C(=O)[C@H]3CC[C@H](OC(=O)N4CC(O)C4)CC3)c2)cn1` [Compound 4.08, 4-((4-(1-(3-Ethylpentan-3-yl)-1H-pyrazol-4-yl)pyridin-2-yl)((4-(4-methoxy-3-methylphenyl)bicyclo[2.2.2]octan-1-yl)methyl)carbamoyl) cyclohexyl trans-3-hydroxyazetidine-1-carboxylate] yielded an EC50 of 10 to 1000 nM.
`COc1ccc(C23CCC(CN(c4cc(-c5coc(C(C)(C)C)n5)ccn4)C(=O)[C@H]4CC[C@H](OC(=O)NCCO)CC4)(CC2)CC3)cc1C` [Compound 2.19, 4-((4-(2-(tert-Butyl)oxazol-4-yl)pyridin-2-yl)((4-(4-methoxy-3-methylphenyl)bicyclo[2.2.2]octan-1-yl)methyl)carbamoyl)cyclohexyl (2-hydroxyethyl)trans-carbamate] gave an EC50 of at most 10 nM.
Work on `COc1ccc([C@H]2CC[C@H](CN(c3cc(-c4coc(C(C)(C)C)n4)ccn3)C(=O)[C@H]3CC[C@H](OC(=O)N4CC(O)C4(C)C)CC3)CC2)cc1C` (stereo partly drawn) [Compound 1.05, trans-4-((4-(2-(tert-Butyl)oxazol-4-yl)pyridin-2-yl)(((trans)-4-(4-methoxy-3-methylphenyl)cyclohexyl)methyl)carbamoyl) cyclohexyl 3-hydroxy-2,2-dimethylazetidine-1-carboxylate] yielded an EC50 of 10 to 1000 nM.
`COc1ccc(C23CCC(CN(c4ccnc(-c5cnn(C(C)(C)C)c5)c4)C(=O)[C@H]4CC[C@H](OC(=O)N5CC(O)C5)CC4)(CC2)CC3)cc1C` [Compound 1.13, 4-((2-(1-(tert-Butyl)-1H-pyrazol-4-yl)pyridin-4-yl)((4-(4-methoxy-3-methylphenyl)bicyclo[2.2.2]octan-1-yl)methyl)carbamoyl) (trans-cyclohexyl) 3-hydroxyazetidine-1-carboxylate] showed an EC50 of 10 to 1000 nM.
With `COc1ccc(C23CCC(CN(c4cc(-c5coc(C(C)(C)C)n5)ccn4)C(=O)[C@H]4CC[C@H](OC(=O)NC5COC5)CC4)(CC2)CC3)cc1C` [Compound 2.18, 4-((4-(2-(tert-Butyl)oxazol-4-yl)pyridin-2-yl)((4-(4-methoxy-3-methylphenyl)bicyclo[2.2.2]octan-1-yl)methyl)carbamoyl) (trans-cyclohexyl) oxetan-3-ylcarbamate] the EC50 was 10 to 1000 nM.
`COc1ccc(C23CCC(CN(c4cc(-c5coc(C(C)(C)C)n5)ccn4)C(=O)[C@H]4CC[C@H](OC(=O)N5CC[C@H]5CO)CC4)(CC2)CC3)cc1C` [Compound 2.11, (S)-4-((4-(2-(tert-Butyl)oxazol-4-yl)pyridin-2-yl)((4-(4-methoxy-3-methylphenyl)bicyclo[2.2.2]octan-1-yl)methyl)carbamoyl)cyclohexyl 2-(hydroxymethyl)azetidine- trans-1-carboxylate] showed an EC50 of at most 10 nM.
Molecule `CCC(C)(CC)n1cc(-c2ccnc(N(CC34CCC(c5ccc(OC)c(C)c5)(CC3)CC4)C(=O)[C@H]3CC[C@H](OC(=O)N4CC(C)(O)C4)CC3)c2)cn1` [Compound 4.05, 4-(((4-(4-Methoxy-3-methylphenyl)bicyclo[2.2.2]octan-1-yl)methyl)(4-(1-(3-methylpentan-3-yl)-1H-pyrazol-4-yl)pyridin-2-yl)carbamoyl)cyclohexyl trans-3-hydroxy-3-methylazetidine-1-carboxylate] has an EC50 of at most 10 nM.
In the case of `COc1c(C)cc(C23CCC(CN(c4cncc(-c5cnn(C(C)(C)C)c5)n4)C(=O)[C@H]4CC[C@H](OC(=O)N5CC(O)C5)CC4)(CC2)CC3)cc1C` [Compound 3.13, 4-((6-(1-(tert-Butyl)-1H-pyrazol-4-yl)pyrazin-2-yl)((4-(4-methoxy-3,5-dimethylphenyl)bicyclo[2.2.2]octan-1-yl)methyl)carbamoyl) (trans-cyclohexyl) 3-hydroxyazetidine-1-carboxylate], the EC50 is reported as 10 to 1000 nM.
